# According to patent US6773727B1, “Use of gossypol and related terpenes for control of urban and agricultural pests” (The United States of America as represented by the …, priority 2001, dated 2004):
# Where two headings read alike, the source gives them in different places.
# Legend:
# [1] = tested on: tobacco budworm (Heliothis virescens [F.]) larvae; conditions: cited from earlier work; for effect on growth: at 2.5 μmoles/g diet; for effective dosage required to reduce by 50% the growth of larvae: larvae fed an artificial diet
# [2] = tested on: tobacco budworm larval growth; conditions: in vivo; cited from earlier work
# [3] = as recommended by manufacturers; pest not stated; cited from earlier work
# roaches = conditions: as recommended by manufacturers; cited from earlier work
# termites = assay: Termite lab colony bait matrix test (time to 100% mortality); assay type: in vivo, Formosan subterranean termite
# Experimental: Gossypol acetic acid complex, which is a commercially available pure chemical, is dissolved in 1 ml acetone (#9006-03; J. T. Baker, Phillipsburg, NJ) using a sterile container. In the pure form as gossypol acetic acid complex and at concentrations of 5 ppm, gossypol is effective when mixed with a chitin synthesis inhibitor of the benzophenyl urea family or microbes such as fungi, bacteria, or viruses, taking a mean time to kill the lab test of four months. At concentrations greater than 500 ppm, without the addition of any other chemical, gossypol acetic acid complex as an insecticide can kill the lab test colony after a mean duration of one month.
# Gossypol-acetic acid complex obtained from USDA-ARS-SRCC, New Orleans, La., crude cotton seed oil [8ETX(5)], from a commercial oil mill, and a commercial cotton meal [6MTN 925 CSM] were separately incorporated into a bait matrix as described in U.S. patent application Ser. No. 09/294,499 filed Apr. 20, 1999, at concentrations of 50, 25, and 12.5 ppm respectively. […] A total of 40 mg of the gossypol acetic acid complex, 250 mg of the crude cotton seed oil, and 900 mg of the cotton seed meal were individually weighed using a Mettler balance (model PB303; Fisher Scientific, Pittsburgh, Pa.). The gossypol-acetic acid complex was placed into a 50 ml sterile screw cap conical tube (#62.547.004; Sarstedt, Newton, N.C.) and dissolved with 1 ml acetone (#9006-03; J. T. Baker, Phillipsburg, N.J.).
# Under a laminar flow hood, the gossypol acetone solution was mixed with 40 ml of sterile nutritional supplement containing 150 ppm of chitin inhibitors (prepared as reported by Rojas, M. G. and Morales-Ramos, J. A., Apr. 2001, “Bait matrix for delivery of chitin synthesis inhibitors to the Formosan subterranean termite [Isoptera: Rhinotermitidae],” J. Econ. Entomol. 94(2):506-510). The tube was tightly closed with a screw cap and manually shaken for 30 seconds. The mixture was added to 100 g of sterile cellulose as reported by Rojas and Morales-Ramos (2001) supra. The cotton seed oil was mixed with 300 ml of supplement and mixed with the sterile cellulose. The cotton seed meal was mixed and homogenized with the sterile cellulose, and then the 300 ml nutritional supplement was added. Each mixture was manually homogenized using a stainless steel spatula.
# The mixtures were prepared as reported above for gossypol-chitin inhibitors, but without the addition of the chitin inhibitors. The fungal spores (400 mg) (Bio-Blast, EcoScience, Orlando, Fla.) were homogenized with the sterile cellulose, then the 300 ml of supplement gossypol-containing solution was added.
# To encase the bait matrix, tubes made of fibrous casing material (#124B; L. E. M. Products, Inc., Miamitown, Ohio) were cut into 150 mm long portions as reported by Rojas and Morales-Ramos (2001) supra. Fifty grams of bait matrix containing a mixture of a single gossypol source and a single chitin synthesis inhibitor, or single gossypol source and fungal spores, were compacted into one end of the inlet tube, at which point the open end of the inlet tube was closed with a rubber band. The bait casing was placed inside of the foraging box adjacent to a 10 g piece of pine wood, taking care that they were partially covered with the sand. […]
# All the experimental boxes were maintained under dark at 29±2° C., and 75±2% relative humidity. […] The time to reach 100% mortality was measured and recorded. […]
# amylase = conditions: cotton leafworm (S. littoralis); cited from earlier work
# [4] = tested on: tobacco budworm neonate larvae; conditions: nine days, cited from earlier work
# [5] = tested on: Spiny bollworm (Earias insulana Boisduval); conditions: cited from earlier work
# invertase = conditions: cotton leafworm (S. littoralis); cited from earlier work
# [6] = tested on: cotton leafworm (Spodoptera littoralis [Boisduval]); conditions: cited from earlier work
# tobacco budworms = conditions: cited from earlier work
# bollworms = conditions: 0.15% gossypol in an artificial diet; regular diet 54.5%; cited from earlier work
# [7] = tested on: silverleaf whitefly (Bemisia argentifolii Bellows and Perring); conditions: in vivo; cited from earlier work
# protease = conditions: cotton leafworm (S. littoralis); cited from earlier work
# subterranean termites = conditions: as recommended by manufacturers; cited from earlier work
# ants = conditions: as recommended by manufacturers; cited from earlier work
molecule,measurement,setting,value
COc1c(O)c(C=O)c2c(c1C(C)C)C(=O)C(C)=CC2=O [Hemigossypolone-6-methyl ether],effect on growth,[1],no effect on growth
C=C1CC[C@H]2O[C@]2(C)CC[C@@H]2[C@@H]1CC2(C)C [caryophyllene oxide],interaction with gossypol in retarding larval growth,[2],interacts synergistically
O=C(NC(=O)c1c(F)cccc1F)Nc1cc(Cl)c(Oc2ncc(C(F)(F)F)cc2Cl)c(Cl)c1 [chlorfuazuron],lethal amount,[3],about 0.5%
O=C(NC(=O)c1c(F)cccc1F)Nc1ccc(Cl)cc1 [diflubenzuron],lethal amount,[3],about 0.250%
N#Cc1nn(-c2c(Cl)cc(C(F)(F)F)cc2Cl)c(N)c1[S+]([O-])C(F)(F)F (stereo not drawn) [fipronil],lethal amount,roaches,about 0.05%
"CC(=O)O.Cc1cc2c(C(C)C)c(O)c(O)c(C=O)c2c(O)c1-c1c(C)cc2c(C(C)C)c(O)c(O)c(C=O)c2c1O [gossypol acetic acid complex, Gossypol acetic acid complex]",mean time to kill the lab test,"termites; 5 ppm, mixed with a chitin synthesis inhibitor of the benzophenyl urea family or microbes",four
same,time to mortality of a 1000-worker colony,"termites; 500 ppm, not mixed with any other chemicals, fungi, or bacteria",about 2.5 weeks
same,mean duration to kill the lab test colony,"termites; concentrations greater than 500 ppm, without any other chemical",one
same,dose sufficient to weaken the termites and allow other chemicals or microorganisms to induce mortality,"termites; preliminary results, doses from 5 to 500 ppm, mortality in about two months, no signs of repellency",100 ppm
Cc1cc2c(C(C)C)c(O)c(O)c(C=O)c2c(O)c1-c1c(C)cc2c(C(C)C)c(O)c(O)c(C=O)c2c1O [gossypol],amylase activity,amylase,inhibits
same,effective dosage required to reduce by 50% the growth of larvae,[1],0.8 μmoles/g diet
same,larval size relative to control,[4]; 0.02% gossypol in artificial diet,98%
same,larval weight relative to controls,[4]; 0.06% gossypol in the diet,63%
same,larval weight relative to controls,[4]; 0.2% gossypol in the diet,13%
same,pupated,[5]; bolls containing 0.58% gossypol,45%
same,pupated,[5]; bolls containing 2.34% gossypol,9%
same,invertase activity,invertase,does not affect
same,mortality,"[6]; 0.5% gossypol in the diet, after 10 days",~70%
same,larvae eventually pupated,[6]; 0.5% gossypol in the diet,0.3%
same,feeding,[6]; 1.0% gossypol in the diet,strongly suppressed feeding
same,food consumption,"tobacco budworms; gossypol 0.30%, 5- and 8-day-old larvae",impaired
same,food utilization,tobacco budworms; gossypol at the 0.15% level,did not measurably affect food utilization
same,food utilization,bollworms,42.5%
same,time until experimental colonies were dead,"termites; gossypol with the chitin inhibitor in bait matrix, control boxes (no gossypol) still alive",about two
same,honeydew production,[7],did not affect
same,mortality,[7],did not affect
same,protease activity,protease,inhibits
COc1c(O)c(C=O)c2c(c1C(C)C)C(=O)C1(C)CC=C(C)C(CC=C(C)C)C1C2=O (stereo not drawn) [heliocide B1],effective dosage required to reduce by 50% the growth of larvae,[1],4.6 μmoles/g diet
COc1c(O)c(C=O)c2c(c1C(C)C)C(=O)C1(C)CC=C(CCC=C(C)C)CC1C2=O (stereo not drawn) [heliocide B2],effect on growth,[1],no effect on growth
COc1c(O)c(C=O)c2c(c1C(C)C)C(=O)C1(C)CC(CCC=C(C)C)=CCC1C2=O (stereo not drawn) [heliocide B3],effect on growth,[1],no effect on growth
CC(C)=CCC1C(C)=CCC2(C)C(=O)c3c(c(C=O)c(O)c(O)c3C(C)C)C(=O)C12 (stereo not drawn) [heliocide H1],effective dosage required to reduce by 50% the growth of larvae,[1],2.5 μmoles/g diet
CC(C)=CCCC1=CC[C@]2(C)C(=O)c3c(c(C=O)c(O)c(O)c3C(C)C)C(=O)[C@@H]2C1 [heliocide H2],effective dosage required to reduce by 50% the growth of larvae,[1],11.2 μmoles/g diet
CC(C)=CCCC1=CC[C@H]2C(=O)c3c(C=O)c(O)c(O)c(C(C)C)c3C(=O)[C@@]2(C)C1 [heliocide H3],effective dosage required to reduce by 50% the growth of larvae,[1],3.9 μmoles/g diet
CC1=CC(=O)c2c(C=O)c(O)c(O)c(C(C)C)c2C1=O [hemigossypolone],effective dosage required to reduce by 50% the growth of larvae,[1],10.5 μmoles/g diet
O=C(NC(=O)c1c(F)cccc1F)Nc1cc(Cl)c(OC(F)(F)C(F)F)c(Cl)c1 [hexaflumuron],lethal amount,[3],about 0.5%
CC1(C)CNC(=NN=C(/C=C/c2ccc(C(F)(F)F)cc2)/C=C/c2ccc(C(F)(F)F)cc2)NC1 [hydramethylnon],lethal amount,subterranean termites,about 0.030%
same,lethal amount,ants,about 1.0%
O=[N+]([O-])NC1=NCCN1Cc1ccc(Cl)nc1 [imidacloprid],lethal amount,roaches,about 2.15%
caryophyllene,interaction with gossypol in retarding larval growth,[2],does not act synergistically
